Measured values from patent US20240391948A1, “NOVEL COMPOUND THAT INHIBITS TNF-ALPHA GENERATION AND INFLAMMASOME ACTIVITY AND PREPARATION METHOD THEREFOR” (SHAPERON INC., priority 2021, published 2024).

Columns and labels:
Format in all cases: cell-based
[1] = tested on: J774A.1 (Mouse BALB/c monocyte macrophage cell line) cells; assay: LPS+ATP-induced IL-1β secretion inhibition in J774A.1 cells; details: J774.A1, 1 μM compound, graded compared to taurodeoxycholic acid (positive control), read-out: IL-1β production inhibition grade
Procedure: (§1) To evaluate anti-inflammatory efficacy, an inflammatory response was induced in J774A.1 (Mouse BALB/c monocyte macrophage cell line) cells derived from mouse macrophages by LPS (lipopolysaccharide) and LPS+ATP (adenosine triphosphate), and the efficacy of taurine-bile acid derivatives to inhibit the production of inflammatory cytokines (IL-1β, TNF-α) was measured. After treating J774A.1 cells with 1 μM of a taurine-bile acid derivative, the degree to which the secretion of TNF-α among cytokines was suppressed was measured in the experimental group in which an inflammatory response was induced by LPS, and the extent to which IL-1β secretion among cytokines was suppressed was measured in the experimental group in which an inflammatory response was induced with LPS+ATP. The ability of taurine-bile acid derivatives to inhibit cytokine production was graded compared to taurodeoxycholic acid, a positive control. The grading criteria are A: over 100%, B: over 50% and under 100%, C: between 20% and under 50%, and D: under 20%.

[2] = tested on: J774A.1 (Mouse BALB/c monocyte macrophage cell line) cells; assay: LPS-induced TNF-α secretion inhibition in J774A.1 cells; details: J774.A1, 1 μM compound, graded compared to taurodeoxycholic acid (positive control), read-out: TNF-α production inhibition grade
Procedure: as §1

[3] = tested on: U937 cells (human monocytic cell line); assay: Pam2CSK4-induced TNF-α secretion inhibition in PMA-differentiated U937 cells; details: U-937, U937 cells differentiated with PMA, read-out: TNF-α production inhibition grade (IC50)
Procedure: (§2) To evaluate anti-inflammatory efficacy, U937 cells (human monocytic cell line) were differentiated into macrophages using PMA (phorbol 12-myristate 13-acetate) and then induced an inflammatory response with Pam2CSK4 (Pam2CysSerLys4) or BzATP (2′(3′)—O-(4-Benzoylbenzoyl)adenosine 5′-triphosphate), the efficacy of taurine-bile acid derivatives in suppressing inflammatory cytokine (IL-1β, TNF-α) production was measured.
(§3) Using PMA, U937 cells were differentiated into macrophages, and the extent of TNF-α secretion inhibition was measured in an experimental group where taurine-bile acid derivatives was treated, followed by induction of inflammatory response with Pam2CSK4, and in the experimental group in which an inflammatory response was induced with BzATP, the extent to which IL-1β secretion among cytokines was suppressed was measured.
(§4) The ability of taurine-bile acid derivatives to inhibit cytokine production was expressed in terms of IC50 (μM) values. The standards for TNF α inhibition ability are A: less than 0.5, B: 0.5 to less than 1.0, C: 1.0 to less than 2.0, D: 2.0 or more, and the IL-1β inhibition ability grade standards are A: less than 0.05, B: 0.05 to less than 0.10, C: 0.10 or more and less than 0.20, D: 0.20 or more.

[4] = tested on: U937 cells (human monocytic cell line); assay: BzATP-induced IL-1β secretion inhibition in PMA-differentiated U937 cells; details: U-937, U937 cells differentiated with PMA, read-out: IL-1β production inhibition grade (IC50)
Procedure: as §2, §3, §4

C[C@H](CCC(=O)NCS(=O)(=O)O)[C@H]1CC[C@H]2[C@@H]3CC[C@@H]4C[C@H](O)CC[C@]4(C)[C@H]3C[C@H](O)[C@]12C [NC10001]
inhibition at 1 µM [1]: > 100% | inhibition at 1 µM [2]: < 20% | IC50 [3]: ≥ 2000 nM | IC50 [4]: < 50 nM

C[C@H](CCC(=O)NCCCS(=O)(=O)O)[C@H]1CC[C@H]2[C@@H]3CC[C@@H]4C[C@H](O)CC[C@]4(C)[C@H]3C[C@H](O)[C@]12C [NC10002]
inhibition at 1 µM [1]: > 100% | inhibition at 1 µM [2]: > 100% | IC50 [3]: < 500 nM | IC50 [4]: < 50 nM

C[C@H](CCC(=O)Nc1ccc(S(=O)(=O)O)cc1)[C@H]1CC[C@H]2[C@@H]3CC[C@@H]4C[C@H](O)CC[C@]4(C)[C@H]3C[C@H](O)[C@]12C [NC10003]
inhibition at 1 µM [1]: > 100% | inhibition at 1 µM [2]: > 100% | IC50 [3]: < 500 nM | IC50 [4]: < 50 nM

C[C@H](CCC(=O)N(CCS(=O)(=O)O)C1CCCCC1)[C@H]1CC[C@H]2[C@@H]3CC[C@@H]4C[C@H](O)CC[C@]4(C)[C@H]3C[C@H](O)[C@]12C [NC10004]
inhibition at 1 µM [1]: 50 to 100% | inhibition at 1 µM [2]: 20 to 50% | IC50 [3]: ≥ 2000 nM | IC50 [4]: ≥ 200 nM

C[C@H](CCC(=O)N(CCS(=O)(=O)O)CC(N)=O)[C@H]1CC[C@H]2[C@@H]3CC[C@@H]4C[C@H](O)CC[C@]4(C)[C@H]3C[C@H](O)[C@]12C [NC10005]
inhibition at 1 µM [1]: 20 to 50% | inhibition at 1 µM [2]: < 20% | IC50 [3]: 1000 to 2000 nM | IC50 [4]: 100 to 200 nM

C[C@H](CCC(=O)N(C)CCS(=O)(=O)O)[C@H]1CC[C@H]2[C@@H]3CC[C@@H]4C[C@H](O)CC[C@]4(C)[C@H]3C[C@H](O)[C@]12C [NC10006]
inhibition at 1 µM [1]: 50 to 100% | inhibition at 1 µM [2]: < 20% | IC50 [3]: 500 to 1000 nM | IC50 [4]: ≥ 200 nM

C[C@H](CCC(=O)NCCCO)[C@H]1CC[C@H]2[C@@H]3CC[C@@H]4C[C@H](O)CC[C@]4(C)[C@H]3C[C@H](O)[C@]12C [NC10021]
IC50 [3]: 1000 to 2000 nM | IC50 [4]: 50 to 100 nM

C[C@H](CCC(=O)N(CCS(=O)(=O)O)C1CCOCC1)[C@H]1CC[C@H]2[C@@H]3CC[C@@H]4C[C@H](O)CC[C@]4(C)[C@H]3C[C@H](O)[C@]12C [NC10025]
IC50 [3]: 1000 to 2000 nM | IC50 [4]: 50 to 100 nM

C[C@H](CCC(=O)N[C@H](CS(=O)(=O)O)c1ccccc1)[C@H]1CC[C@H]2[C@@H]3CC[C@@H]4C[C@H](O)CC[C@]4(C)[C@H]3C[C@H](O)[C@]12C [NC10034]
IC50 [3]: 500 to 1000 nM | IC50 [4]: 50 to 100 nM

C[C@H](CCC(=O)N(CCS(=O)(=O)O)Cc1cccnc1)[C@H]1CC[C@H]2[C@@H]3CC[C@@H]4C[C@H](O)CC[C@]4(C)[C@H]3CC[C@]12C [NC10092]
IC50 [3]: ≥ 2000 nM | IC50 [4]: 50 to 100 nM

C[C@H](CCC(=O)N(CCS(=O)(=O)O)c1ccccc1)[C@H]1CC[C@H]2[C@@H]3CC[C@@H]4C[C@H](O)CC[C@]4(C)[C@H]3CC[C@]12C [NC10093]
IC50 [3]: ≥ 2000 nM | IC50 [4]: 100 to 200 nM

C[C@H](CCC(=O)NCCCO)[C@H]1CC[C@H]2[C@@H]3[C@H](O)C[C@@H]4C[C@H](O)CC[C@]4(C)[C@H]3C[C@H](O)[C@]12C [NC20003]
inhibition at 1 µM [1]: 20 to 50% | inhibition at 1 µM [2]: 50 to 100% | IC50 [4]: 50 to 100 nM

C[C@H](CCC(=O)N(CCS(=O)(=O)O)Cc1ccccc1)[C@H]1CC[C@H]2[C@@H]3CC[C@@H]4CC(=O)CC[C@]4(C)[C@H]3CC[C@]12C [NC30005]
IC50 [3]: 500 to 1000 nM | IC50 [4]: ≥ 200 nM

CC(C)N(CCS(=O)(=O)O)C(=O)CC[C@@H](C)[C@H]1CC[C@H]2[C@@H]3CC[C@@H]4CC(=O)CC[C@]4(C)[C@H]3CC[C@]12C [NC30007]
IC50 [3]: < 500 nM | IC50 [4]: ≥ 200 nM

C[C@H](CCC(=O)N1CCC[C@H]1CS(=O)(=O)O)[C@H]1CC[C@H]2[C@@H]3CC[C@@H]4CC(=O)CC[C@]4(C)[C@H]3CC[C@]12C [NC30021]
IC50 [3]: 500 to 1000 nM | IC50 [4]: 50 to 100 nM

C[C@H](CCC(=O)N[C@@H](CO)CS(=O)(=O)O)[C@H]1CC[C@H]2[C@@H]3CC[C@@H]4CC(=O)CC[C@]4(C)[C@H]3CC[C@]12C [NC30024]
IC50 [3]: 1000 to 2000 nM | IC50 [4]: ≥ 200 nM

C[C@H](CCC(=O)N[C@@H]1CCCC[C@@H]1S(=O)(=O)O)[C@H]1CC[C@H]2[C@@H]3CC[C@@H]4CC(=O)CC[C@]4(C)[C@H]3CC[C@]12C [NC30026]
IC50 [3]: < 500 nM | IC50 [4]: ≥ 200 nM

C[C@H](CCC(=O)NC1(CS(=O)(=O)O)CC1)[C@H]1CC[C@H]2[C@@H]3CC[C@@H]4CC(=O)CC[C@]4(C)[C@H]3CC[C@]12C [NC30032]
IC50 [3]: 500 to 1000 nM | IC50 [4]: ≥ 200 nM

C[C@H](CCC(=O)N(CCS(=O)(=O)O)Cc1cccnc1)[C@H]1CC[C@H]2[C@@H]3CC[C@@H]4CC(=O)CC[C@]4(C)[C@H]3CC[C@]12C [NC30036]
IC50 [3]: 1000 to 2000 nM | IC50 [4]: ≥ 200 nM

CC[C@H]1[C@@H](O)[C@@H]2[C@H](CC[C@]3(C)[C@@H]([C@H](C)CCC(=O)NCCCO)CC[C@@H]23)[C@@]2(C)CC[C@@H](O)C[C@@H]12 [NC40003]
IC50 [3]: ≥ 2000 nM | IC50 [4]: ≥ 200 nM

CC[C@H]1[C@@H](O)[C@@H]2[C@H](CC[C@]3(C)[C@@H]([C@H](C)CCC(=O)N(CCS(=O)(=O)O)Cc4ccccc4)CC[C@@H]23)[C@@]2(C)CC[C@@H](O)C[C@@H]12 [NC40005]
IC50 [3]: ≥ 2000 nM | IC50 [4]: ≥ 200 nM

CC[C@H]1[C@@H](O)[C@@H]2[C@H](CC[C@]3(C)[C@@H]([C@H](C)CCC(=O)N[C@H](CS(=O)(=O)O)C(C)C)CC[C@@H]23)[C@@]2(C)CC[C@@H](O)C[C@@H]12 [NC40016]
IC50 [3]: 500 to 1000 nM | IC50 [4]: ≥ 200 nM

CC[C@H]1[C@@H](O)[C@@H]2[C@H](CC[C@]3(C)[C@@H]([C@H](C)CCC(=O)N[C@@H]4CCCC[C@@H]4S(=O)(=O)O)CC[C@@H]23)[C@@]2(C)CC[C@@H](O)C[C@@H]12 [NC40026]
IC50 [3]: 500 to 1000 nM | IC50 [4]: 50 to 100 nM

CC[C@H]1[C@@H](O)[C@@H]2[C@H](C[C@H](O)[C@]3(C)[C@@H]([C@H](C)CCC(=O)NCCC(=O)O)CC[C@@H]23)[C@@]2(C)CC[C@@H](O)C[C@@H]12 [NC50002]
IC50 [3]: ≥ 2000 nM | IC50 [4]: ≥ 200 nM

CC[C@H]1[C@@H](O)[C@@H]2[C@H](C[C@H](O)[C@]3(C)[C@@H]([C@H](C)CCC(=O)N(CCS(=O)(=O)O)Cc4ccccc4)CC[C@@H]23)[C@@]2(C)CC[C@@H](O)C[C@@H]12 [NC50005]
IC50 [3]: 1000 to 2000 nM | IC50 [4]: ≥ 200 nM

CC[C@H]1[C@@H](O)[C@@H]2[C@H](C[C@H](O)[C@]3(C)[C@@H]([C@H](C)CCC(=O)N4CCC[C@H](S(=O)(=O)O)C4)CC[C@@H]23)[C@@]2(C)CC[C@@H](O)C[C@@H]12 [NC50009]
IC50 [3]: 1000 to 2000 nM | IC50 [4]: 100 to 200 nM

CC[C@H]1[C@@H](O)[C@@H]2[C@H](C[C@H](O)[C@]3(C)[C@@H]([C@H](C)CCC(=O)N4CCC(S(=O)(=O)O)CC4)CC[C@@H]23)[C@@]2(C)CC[C@@H](O)C[C@@H]12 [NC50011]
IC50 [3]: ≥ 2000 nM | IC50 [4]: ≥ 200 nM

CC[C@H]1[C@@H](O)[C@@H]2[C@H](C[C@H](O)[C@]3(C)[C@@H]([C@H](C)CCC(=O)N[C@@H](Cc4ccccc4)CS(=O)(=O)O)CC[C@@H]23)[C@@]2(C)CC[C@@H](O)C[C@@H]12 [NC50014]
IC50 [3]: 500 to 1000 nM | IC50 [4]: < 50 nM

CC[C@H]1[C@@H](O)[C@@H]2[C@H](C[C@H](O)[C@]3(C)[C@@H]([C@H](C)CCC(=O)N[C@@H](CS(=O)(=O)O)C(C)C)CC[C@@H]23)[C@@]2(C)CC[C@@H](O)C[C@@H]12 [NC50017]
IC50 [3]: 1000 to 2000 nM | IC50 [4]: 50 to 100 nM

CC[C@H]1[C@@H](O)[C@@H]2[C@H](C[C@H](O)[C@]3(C)[C@@H]([C@H](C)CCC(=O)NC[C@@H](C)S(=O)(=O)O)CC[C@@H]23)[C@@]2(C)CC[C@@H](O)C[C@@H]12 [NC50023]
IC50 [3]: ≥ 2000 nM | IC50 [4]: ≥ 200 nM
